Columns and labels:
Assay in all cases: biochemical
Design in all cases: DiscoverX kinase panel, active-site competition binding (KINOMEscan type), percent of control at one concentration
Conditions in all cases: competition binding, percent of control
[1] = molecular target: PAK3 (Homo sapiens, UniProt O75914)
[2] = molecular target: MST1R (Homo sapiens, UniProt Q04912)
[3] = molecular target: CSF1R (Homo sapiens, UniProt P07333)
[4] = molecular target: AKT3 (Homo sapiens, UniProt Q9Y243)
[5] = molecular target: T1, RPS6KA4(Kin.Dom.2-C-terminal) (Homo sapiens, UniProt O75676)
T1 construct: Kin.Dom.2-C-terminal

[6] = molecular target: BMPR1A (Homo sapiens, UniProt P36894)
[7] = molecular target: ROS1 (Homo sapiens, UniProt P08922)
Chain of ROS1 (P08922 whole entry): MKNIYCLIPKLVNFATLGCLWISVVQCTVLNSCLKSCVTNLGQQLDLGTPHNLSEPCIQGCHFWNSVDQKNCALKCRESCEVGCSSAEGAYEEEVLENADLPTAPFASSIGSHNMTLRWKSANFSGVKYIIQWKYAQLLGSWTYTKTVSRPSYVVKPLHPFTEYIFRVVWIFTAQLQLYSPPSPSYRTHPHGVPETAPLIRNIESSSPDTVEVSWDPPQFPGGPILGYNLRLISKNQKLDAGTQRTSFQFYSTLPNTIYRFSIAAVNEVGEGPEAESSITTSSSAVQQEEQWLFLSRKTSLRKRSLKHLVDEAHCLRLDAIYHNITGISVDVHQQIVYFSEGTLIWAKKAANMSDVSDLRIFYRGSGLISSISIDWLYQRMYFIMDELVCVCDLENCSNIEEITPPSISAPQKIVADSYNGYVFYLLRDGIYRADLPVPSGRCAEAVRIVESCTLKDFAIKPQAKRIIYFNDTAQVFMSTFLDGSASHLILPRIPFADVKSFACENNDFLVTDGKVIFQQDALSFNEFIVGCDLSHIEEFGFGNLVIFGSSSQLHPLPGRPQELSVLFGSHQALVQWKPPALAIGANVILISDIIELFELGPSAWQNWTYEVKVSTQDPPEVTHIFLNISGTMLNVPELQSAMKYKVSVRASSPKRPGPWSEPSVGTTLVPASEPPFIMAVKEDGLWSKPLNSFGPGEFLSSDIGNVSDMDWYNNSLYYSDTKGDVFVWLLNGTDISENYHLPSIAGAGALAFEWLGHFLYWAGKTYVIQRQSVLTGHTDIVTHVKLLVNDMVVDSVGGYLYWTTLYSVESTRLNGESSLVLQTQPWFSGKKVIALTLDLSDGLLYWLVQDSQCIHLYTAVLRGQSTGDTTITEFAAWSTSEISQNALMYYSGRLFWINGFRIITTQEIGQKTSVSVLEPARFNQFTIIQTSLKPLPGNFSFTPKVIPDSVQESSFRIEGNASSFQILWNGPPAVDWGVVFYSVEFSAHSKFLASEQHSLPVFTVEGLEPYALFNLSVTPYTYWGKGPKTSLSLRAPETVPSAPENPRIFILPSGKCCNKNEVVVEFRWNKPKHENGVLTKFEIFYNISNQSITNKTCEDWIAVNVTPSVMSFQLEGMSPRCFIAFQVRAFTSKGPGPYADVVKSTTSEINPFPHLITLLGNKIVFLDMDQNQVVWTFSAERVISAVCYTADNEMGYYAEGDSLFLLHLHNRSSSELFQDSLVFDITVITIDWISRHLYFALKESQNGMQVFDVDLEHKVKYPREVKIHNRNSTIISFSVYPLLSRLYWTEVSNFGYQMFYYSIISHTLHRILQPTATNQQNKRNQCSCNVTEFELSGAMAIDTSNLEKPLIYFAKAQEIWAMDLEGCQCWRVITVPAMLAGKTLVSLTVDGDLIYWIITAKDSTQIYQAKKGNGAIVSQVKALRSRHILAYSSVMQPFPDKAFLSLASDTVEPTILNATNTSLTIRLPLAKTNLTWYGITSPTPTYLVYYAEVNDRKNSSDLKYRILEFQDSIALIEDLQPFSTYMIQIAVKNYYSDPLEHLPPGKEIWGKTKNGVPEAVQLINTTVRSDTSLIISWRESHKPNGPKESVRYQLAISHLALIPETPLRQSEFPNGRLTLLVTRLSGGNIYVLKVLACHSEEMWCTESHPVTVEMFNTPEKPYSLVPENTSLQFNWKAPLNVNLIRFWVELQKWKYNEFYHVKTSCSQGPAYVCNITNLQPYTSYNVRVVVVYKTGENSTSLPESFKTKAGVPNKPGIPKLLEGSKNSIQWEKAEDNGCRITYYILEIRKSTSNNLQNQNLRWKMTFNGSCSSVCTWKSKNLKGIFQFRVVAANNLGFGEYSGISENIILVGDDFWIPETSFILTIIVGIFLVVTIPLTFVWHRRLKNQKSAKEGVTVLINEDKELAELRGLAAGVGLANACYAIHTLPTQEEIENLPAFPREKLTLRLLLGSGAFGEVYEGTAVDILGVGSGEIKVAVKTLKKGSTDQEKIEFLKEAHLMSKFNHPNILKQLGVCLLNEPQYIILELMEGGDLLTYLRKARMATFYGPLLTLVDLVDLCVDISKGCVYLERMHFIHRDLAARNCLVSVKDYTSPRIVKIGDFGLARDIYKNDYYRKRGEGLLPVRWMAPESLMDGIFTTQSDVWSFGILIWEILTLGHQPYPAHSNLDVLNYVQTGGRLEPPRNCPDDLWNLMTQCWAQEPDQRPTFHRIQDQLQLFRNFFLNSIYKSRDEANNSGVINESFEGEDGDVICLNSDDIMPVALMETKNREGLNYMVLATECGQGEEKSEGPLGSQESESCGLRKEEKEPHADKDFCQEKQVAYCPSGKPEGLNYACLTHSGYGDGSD

[8] = molecular target: T2, JNK2 (Homo sapiens, UniProt P45984)
T2 construct: gene MAPK9

[9] = molecular target: TBK1 (Homo sapiens, UniProt Q9UHD2)
[10] = molecular target: MET(Y1235D) (Homo sapiens, UniProt P08581, Y1235D)
[11] = molecular target: SYK (Homo sapiens, UniProt P43405)
[12] = molecular target: DAPK1 (Homo sapiens, UniProt P53355)
[13] = molecular target: T3, MEK5 (Homo sapiens, UniProt Q13163)
T3 construct: gene MAP2K5

[14] = molecular target: MAP4K2 (Homo sapiens, UniProt Q12851)
[15] = molecular target: T4, PCTK1 (Homo sapiens, UniProt Q00536)
T4 construct: gene CDK16
T4 sequence (Q00536 whole entry): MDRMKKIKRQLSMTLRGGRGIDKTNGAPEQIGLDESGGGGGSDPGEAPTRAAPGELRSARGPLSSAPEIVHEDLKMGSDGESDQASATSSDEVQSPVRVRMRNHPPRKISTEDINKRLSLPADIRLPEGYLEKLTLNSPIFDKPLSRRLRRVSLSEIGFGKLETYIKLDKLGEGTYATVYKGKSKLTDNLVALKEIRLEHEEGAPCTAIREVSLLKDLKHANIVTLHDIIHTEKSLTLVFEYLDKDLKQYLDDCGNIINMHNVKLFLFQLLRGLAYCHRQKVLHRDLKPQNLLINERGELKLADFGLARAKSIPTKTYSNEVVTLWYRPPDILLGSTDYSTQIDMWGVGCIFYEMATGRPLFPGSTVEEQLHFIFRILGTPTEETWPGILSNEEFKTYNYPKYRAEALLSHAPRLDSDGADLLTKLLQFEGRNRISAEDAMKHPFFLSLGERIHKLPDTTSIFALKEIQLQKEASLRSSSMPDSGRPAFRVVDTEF

[16] = molecular target: PRKD1 (Homo sapiens, UniProt Q15139)
[17] = molecular target: ACVR2A (Homo sapiens, UniProt P27037)
[18] = molecular target: PIK3CA(H1047L) (Homo sapiens, UniProt P42336, H1047L)
Chain of PIK3CA(H1047L) (P42336 whole entry H1047L): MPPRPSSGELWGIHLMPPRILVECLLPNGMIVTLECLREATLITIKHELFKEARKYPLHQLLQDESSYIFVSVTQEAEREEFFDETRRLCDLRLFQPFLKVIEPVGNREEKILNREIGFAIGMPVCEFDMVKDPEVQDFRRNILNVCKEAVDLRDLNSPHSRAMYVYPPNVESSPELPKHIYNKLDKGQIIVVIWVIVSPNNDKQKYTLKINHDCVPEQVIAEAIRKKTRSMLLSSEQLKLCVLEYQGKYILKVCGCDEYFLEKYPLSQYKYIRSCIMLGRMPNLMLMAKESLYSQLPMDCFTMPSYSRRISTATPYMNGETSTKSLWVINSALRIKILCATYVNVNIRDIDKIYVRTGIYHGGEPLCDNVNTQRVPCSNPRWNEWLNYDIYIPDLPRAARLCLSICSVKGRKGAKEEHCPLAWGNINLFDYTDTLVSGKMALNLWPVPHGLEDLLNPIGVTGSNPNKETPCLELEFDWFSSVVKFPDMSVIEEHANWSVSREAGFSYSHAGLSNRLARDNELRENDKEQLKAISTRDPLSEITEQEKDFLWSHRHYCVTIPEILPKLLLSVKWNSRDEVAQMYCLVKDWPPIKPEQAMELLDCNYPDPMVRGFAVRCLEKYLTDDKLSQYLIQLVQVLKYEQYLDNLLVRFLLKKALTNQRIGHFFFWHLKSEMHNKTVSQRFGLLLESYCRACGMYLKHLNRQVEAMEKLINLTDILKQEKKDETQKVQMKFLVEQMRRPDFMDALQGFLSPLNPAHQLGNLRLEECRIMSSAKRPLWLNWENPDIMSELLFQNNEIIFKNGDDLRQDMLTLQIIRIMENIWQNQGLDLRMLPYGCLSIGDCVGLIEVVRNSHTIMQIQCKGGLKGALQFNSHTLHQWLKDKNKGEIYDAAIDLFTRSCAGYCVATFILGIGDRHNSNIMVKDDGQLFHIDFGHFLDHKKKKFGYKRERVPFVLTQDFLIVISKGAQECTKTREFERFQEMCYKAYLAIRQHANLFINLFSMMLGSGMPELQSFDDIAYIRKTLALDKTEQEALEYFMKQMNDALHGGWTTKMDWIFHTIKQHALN

[19] = molecular target: T5, CDK4-cyclinD3 (Homo sapiens, UniProt P11802)
T5 construct: cyclinD3

[20] = molecular target: KIT(D816H) (Homo sapiens, UniProt P10721, D816H)
Chain of KIT(D816H) (P10721 whole entry D816H): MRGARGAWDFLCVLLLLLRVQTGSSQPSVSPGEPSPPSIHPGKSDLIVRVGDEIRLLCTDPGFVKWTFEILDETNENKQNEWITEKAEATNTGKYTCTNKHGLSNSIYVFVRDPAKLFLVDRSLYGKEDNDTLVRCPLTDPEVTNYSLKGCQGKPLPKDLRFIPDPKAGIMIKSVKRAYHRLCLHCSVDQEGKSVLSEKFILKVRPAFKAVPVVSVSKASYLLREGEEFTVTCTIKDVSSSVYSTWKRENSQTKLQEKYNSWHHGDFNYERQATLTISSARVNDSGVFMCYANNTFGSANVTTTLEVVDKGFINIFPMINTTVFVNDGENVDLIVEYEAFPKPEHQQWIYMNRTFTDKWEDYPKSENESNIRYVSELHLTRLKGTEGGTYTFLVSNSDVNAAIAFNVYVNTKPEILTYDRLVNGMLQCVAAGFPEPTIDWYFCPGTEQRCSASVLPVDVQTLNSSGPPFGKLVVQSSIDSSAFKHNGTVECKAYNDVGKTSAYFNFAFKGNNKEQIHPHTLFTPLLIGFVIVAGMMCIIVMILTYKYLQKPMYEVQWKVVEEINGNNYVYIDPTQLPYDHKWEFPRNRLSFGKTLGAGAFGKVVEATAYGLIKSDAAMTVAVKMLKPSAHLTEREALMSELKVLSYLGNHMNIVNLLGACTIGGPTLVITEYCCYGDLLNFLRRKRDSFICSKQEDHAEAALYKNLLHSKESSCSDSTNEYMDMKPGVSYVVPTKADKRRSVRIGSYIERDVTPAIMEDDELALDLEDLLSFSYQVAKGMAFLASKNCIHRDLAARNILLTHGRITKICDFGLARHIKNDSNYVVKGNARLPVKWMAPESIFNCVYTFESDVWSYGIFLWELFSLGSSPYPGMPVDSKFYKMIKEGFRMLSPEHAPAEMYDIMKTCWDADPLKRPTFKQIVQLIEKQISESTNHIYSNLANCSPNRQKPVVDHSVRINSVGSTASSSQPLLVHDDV

[21] = molecular target: LRRK2(G2019S) (Homo sapiens, UniProt Q5S007, G2019S)

## COc1cc2c(cn1)N(C)C(=O)[C@@H](NC(=O)c1nc3n(n1)[C@H](c1ccccc1)CC3)CC2 [GNE684, (S)-N-((S)-7-methoxy-1-methyl-2-oxo-2,3,4,5-tetrahydro-1H-pyrido[3,4-b]azepin-3-yl)-5-phenyl-6,7-dihydro-5H-pyrrolo[1,2-b][1,2,4]triazole-2-carboxamide]
[1]
  remaining binding at 10 µM: 99%
[2]
  remaining binding at 10 µM: 94%
[3]
  remaining binding at 10 µM: 100%
[4]
  remaining binding at 10 µM: 75%
[5]
  remaining binding at 10 µM: 100%
[6]
  remaining binding at 10 µM: 91%
[7]
  remaining binding at 10 µM: 96%
[8]
  remaining binding at 10 µM: 98%
[9]
  remaining binding at 10 µM: 94%
[10]
  remaining binding at 10 µM: 82%
[11]
  remaining binding at 10 µM: 75%
[12]
  remaining binding at 10 µM: 88%
[13]
  remaining binding at 10 µM: 80%
[14]
  remaining binding at 10 µM: 100%
[15]
  remaining binding at 10 µM: 82%
[16]
  remaining binding at 10 µM: 100%
[17]
  remaining binding at 10 µM: 82%
[18]
  remaining binding at 10 µM: 95%
[19]
  remaining binding at 10 µM: 97%
[20]
  remaining binding at 10 µM: 100%
[21]
  remaining binding at 10 µM: 97%

Source: paper PMC7206119, “RIP1 inhibition blocks inflammatory diseases but not tumor growth or metastases” (Cell Death and Differentiation, 2019)
